Measured values taken from patent publication US12630501B2, “Anti-fibrotic compounds and use thereof” (HADASIT MEDICAL RESEARCH SERVICES AND DEVELOPMENT LTD., priority 2019, dated 2026).

How the values were obtained:
Ku70/FLIP complex = assay: Ku70 immunoprecipitation with FLIP immunoblot in IPF-lung myofibroblasts; type: cell-based, human; settings: CMH 30 μM, 72 h
Description: (§1) Human lung myofibroblasts Differentiated fibroblasts from IPF-lungs and controls from patient lung biopsies performed for tumor diagnosis were obtained under a protocol detailed in Wallach-Dayan et al., J. Autoimmun. 59: 67-76, 2015. LL 97A (AlMy) (ATCC® CCL-191™)-IPF-lung, and LL 24 (ATCC® CCL-151™)-normal lung fibroblast cell lines were used.
Immunoprecipitation and immunoblotting Standard protocols were performed as described in Golan-Gerstl et al., Am. J. Respir. Cell Mol. Biol. 47: 271-279, 2012.
(§2) FLIP downregulation from an OD of 1.85 to 0.49 (about 3.5-fold) was detected in WB (FIG. 4F), and a […] from a mean fluorescence intensity (MFI)=10^3 to only 10^1 was detected with flow cytometry (FIG. 4G). Thus, SIRT1-mediated Ku70-deacetylation stabilizes IPF-lung myofibroblast FLIP via Ku70/FLIP complex. This effect of CMH on Ku70 further disrupts Ku70/FLIP complex and destabilizes FLIP in IPF-lung myofibroblasts.

FLIP = FLIP protein by Western blot and flow cytometry in IPF-lung myofibroblasts; type: cell-based, human; settings: CMH 30 μM, 72 h
Description: as §1
FLIP protein in lung myofibroblasts Standard WB and flow cytometry were performed as described in Cohen et al., Am. J. Respir. Cell Mol. Biol. 40: 231-238, 2009.
as §2
IPF cell line ATCC-191 (0.5×10^6), were exposed in culture (10% DMEM) to a compound of Formula 6 (1 or 3 μM) vs. 4% DMSO (vehicle) for 16 h. Ku70 immunoprecipitation with subsequent pan-acetyl (FIG. 8A) and immunoblots of Ku70 with anti-Ku70 mAb (FIG. 8B) or FLIP with anti-FLIP mAb (FIG. 8C) were measured. […] IPF-lung myofibroblasts decreased FLIP expression from an OD of 1.00 to 0.51 (about twofold, FIG. 8C).
IPF cell line ATCC-191 (0.5×10^6), were exposed in culture (10% DMEM) to a compound of Formula 12 (1 μM), vs. 4% DMSO (vehicle) for 16 h. Immunoblots of FLIP with anti-FLIP mAb were performed (FIG. 9). […] Thus, the compound of Formula 12 attenuates FLIP stabilization in IPF-lung myofibroblast.

[1] = test system: IPF myofibroblasts of CCL-191 line; assay: Expression of specific genes in IPF myofibroblasts incubated with CMH (Table 1); type: cell-based, human; settings: CCL-191 incubated with CMH; 2-^ΔΔCt, mean±standard error
Description: Table 1 below indicates the expression of specific genes in IPF myofibroblasts of CCL-191 line incubated with CMH and the vehicle, correspondingly, calculated by 2-^ΔΔCt the data is represented as mean±standard error).

[2] = test system: BLM-treated C57BL/6 WT mice; settings: prior finding restated; cited from earlier work
HDAC8 = target: T1, HDAC8 (Homo sapiens, UniProt Q9BY41); settings: prostate cancer cells; cited from earlier work
T1 sequence (Q9BY41 1-377): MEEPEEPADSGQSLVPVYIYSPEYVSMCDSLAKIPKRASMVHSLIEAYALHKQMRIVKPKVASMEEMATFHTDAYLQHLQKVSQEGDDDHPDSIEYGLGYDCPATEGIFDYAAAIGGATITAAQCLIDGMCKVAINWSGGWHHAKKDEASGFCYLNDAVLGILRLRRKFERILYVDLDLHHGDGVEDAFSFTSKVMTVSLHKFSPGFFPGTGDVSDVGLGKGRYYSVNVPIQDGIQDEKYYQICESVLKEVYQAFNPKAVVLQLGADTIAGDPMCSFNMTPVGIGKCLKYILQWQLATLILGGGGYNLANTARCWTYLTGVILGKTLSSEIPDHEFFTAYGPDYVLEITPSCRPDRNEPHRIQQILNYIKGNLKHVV

Cc1cc(Cl)ccc1OCCCC(=O)NO [CMH, 4-(4-chloro-2-methylphenoxy)-N-hydroxybutanamide]
Decrease of Ku70/FLIP complex (Ku70/FLIP complex): about 1.5 fold | Ku70/FLIP complex in FLIP-IB (Ku70/FLIP complex; from 6.2): 4.1 OD | FLIP downregulation in WB (FLIP): about 3.5 fold | FLIP reduction by flow cytometry (FLIP): 60% | FLIP OD in WB (FLIP; from 1.85): 0.49 OD | FLIP mean fluorescence intensity (MFI), flow cytometry (FLIP; from 10^3): 10^1 | AIFM1 expression, M ± m [1]: 12.3 ± 2.89 | BAX expression, M ± m [1]: 319.29 ± 78.06 | BCL2L10 expression, M ± m [1]: 0.13 ± 0.05 | BCL2L11 expression, M ± m [1]: 0.58 ± 0.09 | CASP8 expression, M ± m [1]: 7.13 ± 4.18 | CASP9 expression, M ± m [1]: 9.57 ± 6.69 | CFLAR expression, M ± m [1]: 3.5 ± 1.42 | CFLAR-AS1 expression, M ± m [1]: 0.11 ± 0.04 | DIABLO expression, M ± m [1]: 13.48 ± 3.27 | E2F1 expression, M ± m [1]: 0.39 ± 0.21 | HIC1 expression, M ± m [1]: 0.68 ± 0.44 | MCL1 expression, M ± m [1]: 67.57 ± 34.04 | PPP1R13B expression, M ± m [1]: 0.1 ± 0.05 | PRKCD expression, M ± m [1]: 9 ± 4 | PRKCDBP expression, M ± m [1]: 21.87 ± 9.21 | SIRT1 expression, M ± m [1]: 0.48 ± 0.04 | TP53AIP1 expression, M ± m [1]: 1.11 ± 0.2 | TP53INP2 expression, M ± m [1]: 8.16 ± 0.54 | TP53 expression, M ± m [1]: 1.8 ± 1.19 | XRCC6 expression, M ± m [1]: 84.85 ± 22.88 | Lung fibrosis in in-vivo model, C57BL/6 mice lungs following bleomycin instillation [2]: attenuate lung fibrosis | Inhibition of HDAC8 (HDAC8): Selective inhibition
